Reference: the NIST ThermoML archive (doi:10.1021/acs.jced.5b00814)
Numbers after ± are expanded uncertainties.

Experiments:
[1] = Crystal; DTA
[2] = Molar enthalpy of transition or fusion; conditions: Crystal; DSC

- Normal melting temperature [1]: 133.00 ± 0.7 °C
- Molar enthalpy of transition or fusion [2]: 5.31 ± 0.203 kcal/mol
Structure (SMILES): O=C(O)/C=C/c1ccccc1 [(E)-cinnamic acid]
